Reference: US10752612B2, “PLK4 inhibitors” (LUDWIG INSTITUTE FOR CANCER RESEARCH LTD, priority 2015, dated 2020)

Target: T1, human Plk4 kinase domain (aa 2-275) (Homo sapiens, UniProt O00444)
T1 construct: purified 6×His-tagged human Plk4 kinase domain (aa 2-275); 6xHis; made in house; host or cells: E. coli
T1 sequence (O00444 2-275): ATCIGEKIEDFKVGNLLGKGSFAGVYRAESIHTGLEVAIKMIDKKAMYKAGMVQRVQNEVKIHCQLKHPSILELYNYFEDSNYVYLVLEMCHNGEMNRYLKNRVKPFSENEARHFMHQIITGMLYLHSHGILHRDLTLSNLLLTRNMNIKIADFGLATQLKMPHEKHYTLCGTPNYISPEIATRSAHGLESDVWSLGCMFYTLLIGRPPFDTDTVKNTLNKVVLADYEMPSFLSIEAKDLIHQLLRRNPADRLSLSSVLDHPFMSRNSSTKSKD
Assay: Plk4 kinase assay (ADP-Glo)
Type: biochemical
Conditions: Table 1
In short: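 Enzyme at 2.5-10 nM final, pH 8.0, reacted 4-16 hours at 25° C; ADP generation read by ADP-Glo luminescence. Ki derived from IC50 by Cheng-Prusoff or, for tight binders, Copeland formalism.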

| Compound | IC50 [µM] |
| --- | --- |
| Cc1cc(Nc2nc(Sc3ccc(NC(=O)C4CC4)cc3)nc(N3CCN(C)CC3)c2CO)n[nH]1 | 0.1 to 1 |
| Cc1cc(Nc2nc(Sc3ccc(NC(=O)C4CC4)cc3)nc(N3CCN(C(C)C)CC3)c2C)n[nH]1 | < 1 |
| CC(=O)N1CCN(c2nc(Sc3ccc(NC(=O)C4CC4)cc3)nc(Nc3cc(C)[nH]n3)c2C)CC1 | < 1 |
| COCCN1CCN(c2nc(Sc3ccc(NC(=O)C4CC4)cc3)nc(Nc3cc(C)[nH]n3)c2C)CC1 | < 1 |
| Cc1cc(Nc2nc(Sc3ccc(NC(=O)C4CC4)cc3)nc(N3CCN(C)C(C)C3)c2C)n[nH]1 (stereo not drawn) | < 1 |
| Cc1cc(Nc2nc(Sc3ccc(NC(=O)C4CC4)cc3)nc(N3CCN(CCN(C)C)CC3)c2C)n[nH]1 | < 1 |
| Cc1cc(Nc2nc(Sc3ccc(NC(=O)C4CC4)cc3)nc(N(C)C)c2C)n[nH]1 | < 1 |
| CCN(C)c1nc(Sc2ccc(NC(=O)C3CC3)cc2)nc(Nc2cc(C)[nH]n2)c1C | < 1 |
| CCN(CC)c1nc(Sc2ccc(NC(=O)C3CC3)cc2)nc(Nc2cc(C)[nH]n2)c1C | < 1 |
| COc1c(Nc2cc(C)[nH]n2)nc(Sc2ccc(NC(=O)C3CC3)cc2)nc1NC1CCN(C)CC1 | 0.1 to 1 |
| CCOc1c(Nc2cc(C)[nH]n2)nc(Sc2ccc(NC(=O)C3CC3)cc2)nc1N1CCN(C(=O)CN(C)C)CC1 | 0.1 to 1 |
| CCOc1c(Nc2cc(C)[nH]n2)nc(Sc2ccc(NC(=O)C3CC3)cc2)nc1N1CCN(C2CCNCC2)CC1 | 0.1 to 1 |
| CCOc1c(Nc2cc(C)[nH]n2)nc(Sc2ccc(NC(C)=O)cc2)nc1N1CCN(C)CC1 | 0.1 to 1 |
| CCOc1c(Nc2cc(C)[nH]n2)nc(Sc2ccc(NC(C)=O)cc2)nc1N(C)C | 0.1 to 1 |
| CCOc1c(Nc2cc(C)[nH]n2)nc(Sc2ccc(NC(=O)C3CCCC3)cc2)nc1N1CCN(C2CCNCC2)CC1 | 0.1 to 1 |
| CCOc1c(Nc2cc(C)[nH]n2)nc(Sc2ccc(NC(=O)C3CCCC3)cc2)nc1N1CCN(C)CC1 | 0.1 to 1 |
| CCOc1c(Nc2cc(C)[nH]n2)nc(Sc2ccc(NC(=O)C3CCCC3)cc2)nc1N(C)C | 0.1 to 1 |
| CC(=O)Nc1ccc(Sc2nc(Nc3cc(C)[nH]n3)c(C)c(N3CCN(CCN(C)C)CC3)n2)cc1 | < 1 |
| COCCN1CCN(c2nc(Sc3ccc(NC(C)=O)cc3)nc(Nc3cc(C)[nH]n3)c2C)CC1 | < 1 |
| CC(=O)Nc1ccc(Sc2nc(Nc3cc(C)[nH]n3)c(C)c(N3CCN(C(C)=O)CC3)n2)cc1 | < 1 |
| CC(=O)Nc1ccc(Sc2nc(Nc3cc(C)[nH]n3)c(C)c(N3CCNCC3)n2)cc1 | < 1 |

| Compound | IC50 [µM] |
| --- | --- |
| CC(=O)Nc1ccc(Sc2nc(Nc3cc(C)[nH]n3)c(C)c(N3CCOCC3)n2)cc1 | < 1 |
| CC(=O)Nc1ccc(Sc2nc(Nc3cc(C)[nH]n3)c(C)c(N3CCN(C4CCN(C)CC4)CC3)n2)cc1 | < 1 |
| Cc1cc(Cc2nc(Sc3ccc(NC(=O)C4CCCC4)cc3)nc(N3CCN(CCN(C)C)CC3)c2C)n[nH]1 | < 1 |
| COCCN1CCN(c2nc(Sc3ccc(NC(=O)C4CCCC4)cc3)nc(Cc3cc(C)[nH]n3)c2C)CC1 | < 1 |
| CC(=O)N1CCN(c2nc(Sc3ccc(NC(=O)C4CCCC4)cc3)nc(Nc3cc(C)[nH]n3)c2C)CC1 | < 1 |
| Cc1cc(Nc2nc(Sc3ccc(NC(=O)C4CCCC4)cc3)nc(N3CCNCC3)c2C)n[nH]1 | < 1 |
| Cc1cc(Nc2nc(Sc3ccc(NC(=O)C4CCCC4)cc3)nc(N3CCOCC3)c2C)n[nH]1 | < 1 |
| Cc1cc(Nc2nc(Sc3ccc(NC(=O)C4CCCC4)cc3)nc(N3CCN(C4CCN(C)CC4)CC3)c2C)n[nH]1 | < 1 |
| COc1c(Nc2cc(C)[nH]n2)nc(Sc2ccc(NC(C)=O)cc2)nc1N1CCCCC1 | < 1 |
| CCOc1c(Nc2cc(C)[nH]n2)nc(Sc2ccc(NC(=O)C3CCCC3)cc2)nc1N1CCN(C(=O)CCN(C)C)CC1 | > 1 |
| CCSc1c(Nc2cc(C)[nH]n2)nc(Sc2ccc(NC(=O)C3CC3)cc2)nc1N1CCN(C)CC1 | 0.1 to 1 |
| CC(=O)Nc1ccc(Sc2nc(Nc3cc(C)[nH]n3)c(C)c(N(C)C(C)C)n2)cc1 | < 1 |
| CC(=O)Nc1ccc(Sc2nc(Nc3cc(C)[nH]n3)c(C)c(N3CCN(C(=O)CCN(C)C)CC3)n2)cc1 | < 1 |
| COCC(=O)N1CCN(c2nc(Sc3ccc(NC(C)=O)cc3)nc(Nc3cc(C)[nH]n3)c2C)CC1 | < 1 |
| Cc1cc(Nc2nc(Sc3ccc(NC(=O)C4CCCC4)cc3)nc(N(C)C(C)C)c2C)n[nH]1 | < 1 |
| COCC(=O)N1CCN(c2nc(Sc3ccc(NC(=O)C4CCCC4)cc3)nc(Nc3cc(C)[nH]n3)c2C)CC1 | < 1 |
| Cc1cc(Nc2nc(Sc3ccc(NC(=O)C4CCCC4)cc3)nc(N3CCCCC3)c2C)n[nH]1 | < 1 |
| CCN(CC)c1nc(Sc2ccc(NC(=O)C3CCCC3)cc2)nc(Nc2cc(C)[nH]n2)c1C | 0.1 to 1 |
| CCN(C)c1nc(Sc2ccc(NC(=O)C3CCCC3)cc2)nc(Nc2cc(C)[nH]n2)c1C | < 1 |
| Cc1cc(Nc2nc(Sc3ccc(NC(=O)C4CCCC4)cc3)nc(N(C)C)c2C)n[nH]1 | < 1 |
| CSc1c(Nc2cc(C)[nH]n2)nc(Sc2ccc(NC(=O)C3CC3)cc2)nc1N1CCN(C)CC1 | 0.1 to 1 |

| Compound | IC50 [µM] |
| --- | --- |
| CC(=O)Nc1ccc(Sc2nc(Nc3cc(C)[nH]n3)c(C)c(N3CCC(O)CC3)n2)cc1 | < 1 |
| CC(=O)Nc1ccc(Sc2nc(Nc3cc(C)[nH]n3)c(C)c(N3CCCC3)n2)cc1 | < 1 |
| CC(=O)Nc1ccc(Sc2nc(Nc3cc(C)[nH]n3)c(C)c(N3CCCCCC3)n2)cc1 | < 1 |
| Cc1cc(Nc2nc(Sc3ccc(NC(=O)C4CC4)cc3)nc(N3CCN(C)CC3)c2Cl)n[nH]1 | 0.1 to 1 |
| CC(=O)Nc1ccc(Sc2nc(Nc3cc(C)[nH]n3)c(C)c(N3CC=CCC3)n2)cc1 | < 1 |
| CC(=O)Nc1ccc(Sc2nc(Nc3cc(C)[nH]n3)c(C)c(N3CC=C(F)CC3)n2)cc1 | < 1 |
| CC(=O)Nc1ccc(Sc2nc(Nc3cc(C)[nH]n3)c(C)c(N3CCC(C)CC3)n2)cc1 | < 1 |
| CC(=O)Nc1ccc(Sc2nc(Nc3cc(C)[nH]n3)c(Cl)c(N3CCN(C)CC3)n2)cc1 | < 1 |
| CSc1nc(Nc2cc(C)[nH]n2)c(C)c(N2CCCCC2)n1 | < 1 |
| Cc1cc(Nc2nc(Sc3ccccc3)nc(N3CCCCC3)c2C)n[nH]1 | < 1 |
| Cc1ccc(Sc2nc(Nc3cc(C)[nH]n3)c(C)c(N3CCCCC3)n2)cc1 | < 1 |
| Cc1cc(Nc2nc(Sc3ccc(N)cc3)nc(N3CCCCC3)c2C)n[nH]1 | < 1 |
| CNC(=O)Nc1ccc(Sc2nc(Nc3cc(C)[nH]n3)c(C)c(N3CCCCC3)n2)cc1 | < 1 |
| COC(=O)Nc1ccc(Sc2nc(Nc3cc(C)[nH]n3)c(C)c(N3CCCCC3)n2)cc1 | < 1 |
| CC(=O)Nc1ccc(Sc2nc(Nc3cc(C)[nH]n3)c(C)c(N3CCC(F)(F)CC3)n2)cc1 | < 1 |
| CC(=O)Nc1ccc(Sc2nc(Nc3cc(C)[nH]n3)c(C)c(N3CCC(F)CC3)n2)cc1 | < 1 |
| COc1c(Nc2cc(C)[nH]n2)nc(Sc2ccc(S(=O)(=O)Cc3ccccc3)cc2)nc1N1CCC(CCN2CCN(C)CC2)CC1 | < 1 |
| COc1c(Nc2cc(C)[nH]n2)nc(Sc2ccc(S(=O)(=O)Cc3ccccc3)cc2)nc1N1CCN(CCN2CCCCCC2)CC1 | < 1 |
| COc1c(Nc2cc(C)[nH]n2)nc(Sc2ccc(NC(C)=O)cc2)nc1N1CCN(C2CCN(C)CC2)CC1 | < 1 |
| COc1c(Nc2cc(C)[nH]n2)nc(Sc2ccc(NC(C)=O)cc2)nc1N1CCN(C)CC1 | < 1 |
| CCOc1c(Nc2cc(C)[nH]n2)nc(Sc2ccc(NC(C)=O)cc2)nc1N1CCN(C2CCN(C)CC2)CC1 | 0.1 to 1 |

| Compound | IC50 [µM] |
| --- | --- |
| CC(=O)Nc1ccc(Sc2nc(Nc3cc(C)[nH]n3)c(Cl)c(N3CCCCC3)n2)cc1 | < 1 |
| Cc1cc(Nc2nc(Sc3ccc(N(C)C)cc3)nc(N3CCCCC3)c2C)n[nH]1 | < 1 |
| CC(=O)Nc1ccc(Sc2nc(Nc3cc(C)[nH]n3)cc(N3CCCCC3)n2)cc1 | < 1 |
| COc1c(Nc2cc(C)[nH]n2)nc(Sc2ccc(NC(C)=O)cc2)nc1N1CCNCC1 | < 1 |
| CCN(CC)c1nc(Sc2ccc(NC(C)=O)cc2)nc(Nc2cc(C)[nH]n2)c1OC | < 1 |
| CCN(C)c1nc(Sc2ccc(NC(C)=O)cc2)nc(Nc2cc(C)[nH]n2)c1OC | < 1 |
| COc1c(Nc2cc(C)[nH]n2)nc(Sc2ccc(NC(C)=O)cc2)nc1N(C)C | < 1 |
| COc1c(Nc2cc(C)[nH]n2)nc(Sc2ccc(NC(C)=O)cc2)nc1N1CCOCC1 | < 1 |
| COc1c(Nc2cc(C)[nH]n2)nc(Sc2ccc(NC(C)=O)cc2)nc1N1CCN(C(C)=O)CC1 | < 1 |
| COCCN1CCN(c2nc(Sc3ccc(NC(C)=O)cc3)nc(Nc3cc(C)[nH]n3)c2OC)CC1 | < 1 |
| COc1c(Nc2cc(C)[nH]n2)nc(Sc2ccc(NC(C)=O)cc2)nc1N1CCCC1 | < 1 |
| COc1c(Nc2cc(C)[nH]n2)nc(Sc2ccc(NC(C)=O)cc2)nc1N1CCCCCC1 | 0.1 to 1 |
| COc1c(Nc2cc(C)[nH]n2)nc(Sc2ccc(NC(C)=O)cc2)nc1N1CCC(C)CC1 | 0.1 to 1 |
| COc1c(Nc2cc(C)[nH]n2)nc(Sc2ccc(NC(C)=O)cc2)nc1N(C)C(C)C | < 1 |
| CC(=O)Nc1ccc(Sc2nc(Nc3cc(C)[nH]n3)c(C)c(N3CCCCC3C)n2)cc1 (stereo not drawn) | < 1 |
| CCN1CCN(c2nc(Sc3ccc(NC(C)=O)cc3)nc(Nc3cc(C)[nH]n3)c2C)CC1 | < 1 |
| COCC(=O)N1CCN(c2nc(Sc3ccc(NC(C)=O)cc3)nc(Nc3cc(C)[nH]n3)c2OC)CC1 | < 1 |
| COc1c(Nc2cc(C)[nH]n2)nc(Sc2ccc(NC(C)=O)cc2)nc1N1CCC(F)(F)CC1 | < 1 |
| COc1c(Nc2cc(C)[nH]n2)nc(Sc2ccc(NC(C)=O)cc2)nc1N1CCC(F)CC1 | < 1 |
| COc1c(Nc2cc(C)[nH]n2)nc(Sc2ccc(NC(C)=O)cc2)nc1N1CCC(O)CC1 | < 1 |
| COc1c(Nc2cc(C)[nH]n2)nc(Sc2ccc(NC(C)=O)cc2)nc1N1CC=CCC1 | < 1 |
